We go through one compound from ChEMBL document CHEMBL5154702, “Synthesis and biological evaluation of aminobenzamides containing purine moiety as class I histone deacetylases inhibitors” (Bioorg Med Chem, 2022).

Series [1] deals with T1, Protein deacetylase HDAC6 (Homo sapiens, UniProt Q9UBN7).
T1 sequence (Q9UBN7 whole entry): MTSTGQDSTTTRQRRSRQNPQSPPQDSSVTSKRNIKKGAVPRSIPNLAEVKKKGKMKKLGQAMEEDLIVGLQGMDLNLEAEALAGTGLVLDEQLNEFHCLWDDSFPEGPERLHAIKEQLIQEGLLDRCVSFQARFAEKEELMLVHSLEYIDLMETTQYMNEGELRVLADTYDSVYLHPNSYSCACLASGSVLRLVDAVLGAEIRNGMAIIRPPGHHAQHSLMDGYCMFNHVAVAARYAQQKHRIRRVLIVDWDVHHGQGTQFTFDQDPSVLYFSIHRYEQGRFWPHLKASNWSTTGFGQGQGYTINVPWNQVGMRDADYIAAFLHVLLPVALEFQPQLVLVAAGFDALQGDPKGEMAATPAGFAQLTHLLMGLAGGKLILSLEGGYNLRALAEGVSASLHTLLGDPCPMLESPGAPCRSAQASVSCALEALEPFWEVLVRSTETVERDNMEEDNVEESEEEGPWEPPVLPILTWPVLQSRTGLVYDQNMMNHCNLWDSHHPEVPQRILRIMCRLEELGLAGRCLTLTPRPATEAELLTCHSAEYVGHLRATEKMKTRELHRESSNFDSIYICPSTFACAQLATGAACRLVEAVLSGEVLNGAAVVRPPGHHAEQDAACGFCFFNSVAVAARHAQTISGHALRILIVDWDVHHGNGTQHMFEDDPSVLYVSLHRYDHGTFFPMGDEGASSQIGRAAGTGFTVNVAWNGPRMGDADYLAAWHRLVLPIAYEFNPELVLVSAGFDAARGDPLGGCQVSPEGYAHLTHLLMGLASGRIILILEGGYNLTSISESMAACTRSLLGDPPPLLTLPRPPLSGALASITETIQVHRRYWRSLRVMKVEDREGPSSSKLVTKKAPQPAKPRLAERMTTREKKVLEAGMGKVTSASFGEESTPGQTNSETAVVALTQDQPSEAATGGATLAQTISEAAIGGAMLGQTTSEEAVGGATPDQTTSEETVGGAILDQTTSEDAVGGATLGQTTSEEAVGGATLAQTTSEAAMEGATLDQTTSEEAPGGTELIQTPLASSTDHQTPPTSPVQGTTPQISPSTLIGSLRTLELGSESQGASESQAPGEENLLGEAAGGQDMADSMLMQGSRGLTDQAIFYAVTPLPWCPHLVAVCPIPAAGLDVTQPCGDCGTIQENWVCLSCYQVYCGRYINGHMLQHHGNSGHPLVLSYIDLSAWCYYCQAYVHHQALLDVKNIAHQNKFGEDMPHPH
Put plainly: Inhibition of recombinant human N-terminal GST-tagged HDAC6 (1 to 1215 residues) expressed in Sf9 insect cells using fluorogenic HDAC substrate 3 measured after 30 mins by fluorimetry.

In series [2] the target is Histone deacetylase 3/Nuclear receptor corepressor 2 (HDAC3/NCoR2) (Homo sapiens, UniProt O15379). Kind of series: biochemical. Also noted: species or system Sf9.
The target in the next series is Histone deacetylase. Format: cell-based, Homo sapiens. As to conditions: hela.
Series [3] concerns the target T2, Histone deacetylase (Homo sapiens) (UniProt Q13547+O15379+Q9UBN7+Q92769+Q9UQL6+Q8WUI4+Q9BY41+Q96DB2+P56524+Q9UKV0+Q969S8). Put plainly: Potency index, ratio of MS-275 IC50 to test compound IC50 for inhibition of HDAC in human HeLa cell nuclear extracts using color de Lys as substrate.
Series [4] has as its target T2, Histone deacetylase (Homo sapiens). Kind of series: Potency index, ratio of SAHA IC50 to test compound IC50 for inhibition of HDAC in human HeLa cell nuclear extracts using color de Lys as substrate.
Series [5] relates to MDA-MB-231. Put plainly: Antiproliferative activity against human MDA-MB-231 cells measured after 48 hrs by MTT assay. The class given is functional, cell-based. As to conditions: MDA-MB-231, 48 h. (Tetrazolium assays rely on reduction of a dye to a coloured formazan, in cell work by metabolically active cells.)
For another series, the system named is HepG2. Put plainly: cells. The class given is functional, cell-based. As to conditions: Homo sapiens, HepG2, 48 h.
A further series deals with SGC-7901. Put plainly: Antiproliferative activity against human SGC-7901 cells measured after 48 hrs by MTT assay. Format: functional, cell-based. As to conditions: SGC-7901, 48 h.
Another series concerns K562. Put plainly: cells. The class given is functional, cell-based. As to conditions: Homo sapiens, K562, 48 h.
The test system of series [6] is MDA-MB-231. Kind of series: Potency index, ratio of SAHA IC50 to test compound IC50 for antiproliferative activity against human MDA-MB-231 cells. Format: functional.
The test system of series [7] is HCT-116. Kind of series: Induction of cell morphological changes in human HCT-116 cells assessed as […] deformation at 0.5 to 5 uM measured after 24 hrs by phase contrast microscopy. Format: functional, cell-based. As to conditions: dose 0.5-5 µM.
Series [8] relates to HCT-116. Put plainly: Induction of cell morphological changes in human HCT-116 cells assessed as cell vacuolization at 0.5 to 5 uM measured after 24 hrs by phase contrast microscopy. Format: functional, cell-based. As to conditions: dose 0.5-5 µM.
Series [9] has as its system HCT-116. Put plainly: Induction of apoptosis in human HCT-116 cells assessed as late apoptotic cells at 1 uM measured after 24 hrs by Annexin V-FITC/propidium iodide staining based flow cytometry (reference value: 3.43%). Format: functional. Background: Flow cytometry measures light scatter and fluorescence of single cells or particles in a stream.
Series [10] concerns HCT-116. Put plainly: Cell cycle arrest in human HCT-116 cells assessed as accumulation of cells at G0/G1 phase at 0.1 uM measured after 24 hrs by propidium iodide staining based flow cytometry (reference value: 58.05%). The class given is functional.
The subject of series [11] is HCT-116. Put plainly: Cell cycle arrest in human HCT-116 cells assessed as accumulation of cells at G2/M phase at 0.5 uM measured after 24 hrs by propidium iodide staining based flow cytometry (reference value: 22.74%). Format: functional.
Series [12] concerns HCT-116. Kind of series: Cell cycle arrest in human HCT-116 cells assessed as accumulation of cells at G2/M phase at 1 uM measured after 24 hrs by propidium iodide staining based flow cytometry (reference value: 22.74%). Format: functional.
Series [13] has as its system HCT-116. Put plainly: Cell cycle arrest in human HCT-116 cells assessed as accumulation of cells at G0/G1 phase at 5 uM measured after 24 hrs by propidium iodide staining based flow cytometry (reference value: 58.05%). The class given is functional.
Series [14] concerns HCT-116. Kind of series: Cell cycle arrest in human HCT-116 cells assessed as accumulation of cells at G2/M phase at 10 uM measured after 24 hrs by propidium iodide staining based flow cytometry (reference value: 22.74%). Format: functional.
Series [15] relates to HCT-116. Kind of series: Cell cycle arrest in human HCT-116 cells assessed as up regulation of p21 expression measured after 24 hrs by Western blot analysis. The class given is functional, cell-based. As to conditions: dose 0.1-10 µM, DDE = dose-dependent effect. Background: Immunoblotting shows a protein as a band on a membrane.
Series [16] has as its system HCT-116. Put plainly: Cell cycle arrest in human HCT-116 cells assessed as up regulation of Bax expression measured after 24 hrs by Western blot analysis. The class given is functional, cell-based. As to conditions: dose 0.1-10 µM, DDE = dose-dependent effect.
Series [17] relates to HCT-116. Put plainly: Cell cycle arrest in human HCT-116 cells assessed as down regulation of Bcl-2 expression at 5 uM by Western blot analysis. Format: functional, cell-based. As to conditions: time 6-48 hrs, TDE = time-dependent effect.
A short description of series [18]: Half life in dog liver microsomes at 13.8 uM by HPLC analysis. The class given is ADME, Canis lupus familiaris, Microsome.
Series [19] in a line: Intrinsic clearance in dog liver microsomes assessed per mg protein at 13.8 uM by HPLC analysis. The class given is ADME, Canis lupus familiaris, Microsome.
Series [20] is described as follows: Intrinsic clearance in human liver microsomes assessed per mg protein at 13.8 uM by HPLC analysis. The class given is ADME, Microsome.

Calls of active or inactive are those of the source. The rule behind the calls is not given here.

Histone deacetylase 3/Nuclear receptor corepressor 2 (HDAC3/NCoR2), sequence (O15379 whole entry): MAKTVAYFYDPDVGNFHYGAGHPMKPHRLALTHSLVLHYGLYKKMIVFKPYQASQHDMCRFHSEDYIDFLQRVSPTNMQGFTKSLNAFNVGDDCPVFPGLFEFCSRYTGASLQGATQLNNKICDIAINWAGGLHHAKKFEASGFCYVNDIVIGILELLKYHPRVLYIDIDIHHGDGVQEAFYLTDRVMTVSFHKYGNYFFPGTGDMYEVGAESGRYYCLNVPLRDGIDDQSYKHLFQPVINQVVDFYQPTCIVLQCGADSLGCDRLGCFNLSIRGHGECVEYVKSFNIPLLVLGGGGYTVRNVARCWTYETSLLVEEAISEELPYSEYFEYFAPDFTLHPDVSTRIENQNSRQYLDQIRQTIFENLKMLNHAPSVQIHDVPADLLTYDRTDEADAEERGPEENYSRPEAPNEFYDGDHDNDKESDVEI
Histone deacetylase 3/Nuclear receptor corepressor 2 (HDAC3/NCoR2), sequence (Q9Y618 whole entry, further chain): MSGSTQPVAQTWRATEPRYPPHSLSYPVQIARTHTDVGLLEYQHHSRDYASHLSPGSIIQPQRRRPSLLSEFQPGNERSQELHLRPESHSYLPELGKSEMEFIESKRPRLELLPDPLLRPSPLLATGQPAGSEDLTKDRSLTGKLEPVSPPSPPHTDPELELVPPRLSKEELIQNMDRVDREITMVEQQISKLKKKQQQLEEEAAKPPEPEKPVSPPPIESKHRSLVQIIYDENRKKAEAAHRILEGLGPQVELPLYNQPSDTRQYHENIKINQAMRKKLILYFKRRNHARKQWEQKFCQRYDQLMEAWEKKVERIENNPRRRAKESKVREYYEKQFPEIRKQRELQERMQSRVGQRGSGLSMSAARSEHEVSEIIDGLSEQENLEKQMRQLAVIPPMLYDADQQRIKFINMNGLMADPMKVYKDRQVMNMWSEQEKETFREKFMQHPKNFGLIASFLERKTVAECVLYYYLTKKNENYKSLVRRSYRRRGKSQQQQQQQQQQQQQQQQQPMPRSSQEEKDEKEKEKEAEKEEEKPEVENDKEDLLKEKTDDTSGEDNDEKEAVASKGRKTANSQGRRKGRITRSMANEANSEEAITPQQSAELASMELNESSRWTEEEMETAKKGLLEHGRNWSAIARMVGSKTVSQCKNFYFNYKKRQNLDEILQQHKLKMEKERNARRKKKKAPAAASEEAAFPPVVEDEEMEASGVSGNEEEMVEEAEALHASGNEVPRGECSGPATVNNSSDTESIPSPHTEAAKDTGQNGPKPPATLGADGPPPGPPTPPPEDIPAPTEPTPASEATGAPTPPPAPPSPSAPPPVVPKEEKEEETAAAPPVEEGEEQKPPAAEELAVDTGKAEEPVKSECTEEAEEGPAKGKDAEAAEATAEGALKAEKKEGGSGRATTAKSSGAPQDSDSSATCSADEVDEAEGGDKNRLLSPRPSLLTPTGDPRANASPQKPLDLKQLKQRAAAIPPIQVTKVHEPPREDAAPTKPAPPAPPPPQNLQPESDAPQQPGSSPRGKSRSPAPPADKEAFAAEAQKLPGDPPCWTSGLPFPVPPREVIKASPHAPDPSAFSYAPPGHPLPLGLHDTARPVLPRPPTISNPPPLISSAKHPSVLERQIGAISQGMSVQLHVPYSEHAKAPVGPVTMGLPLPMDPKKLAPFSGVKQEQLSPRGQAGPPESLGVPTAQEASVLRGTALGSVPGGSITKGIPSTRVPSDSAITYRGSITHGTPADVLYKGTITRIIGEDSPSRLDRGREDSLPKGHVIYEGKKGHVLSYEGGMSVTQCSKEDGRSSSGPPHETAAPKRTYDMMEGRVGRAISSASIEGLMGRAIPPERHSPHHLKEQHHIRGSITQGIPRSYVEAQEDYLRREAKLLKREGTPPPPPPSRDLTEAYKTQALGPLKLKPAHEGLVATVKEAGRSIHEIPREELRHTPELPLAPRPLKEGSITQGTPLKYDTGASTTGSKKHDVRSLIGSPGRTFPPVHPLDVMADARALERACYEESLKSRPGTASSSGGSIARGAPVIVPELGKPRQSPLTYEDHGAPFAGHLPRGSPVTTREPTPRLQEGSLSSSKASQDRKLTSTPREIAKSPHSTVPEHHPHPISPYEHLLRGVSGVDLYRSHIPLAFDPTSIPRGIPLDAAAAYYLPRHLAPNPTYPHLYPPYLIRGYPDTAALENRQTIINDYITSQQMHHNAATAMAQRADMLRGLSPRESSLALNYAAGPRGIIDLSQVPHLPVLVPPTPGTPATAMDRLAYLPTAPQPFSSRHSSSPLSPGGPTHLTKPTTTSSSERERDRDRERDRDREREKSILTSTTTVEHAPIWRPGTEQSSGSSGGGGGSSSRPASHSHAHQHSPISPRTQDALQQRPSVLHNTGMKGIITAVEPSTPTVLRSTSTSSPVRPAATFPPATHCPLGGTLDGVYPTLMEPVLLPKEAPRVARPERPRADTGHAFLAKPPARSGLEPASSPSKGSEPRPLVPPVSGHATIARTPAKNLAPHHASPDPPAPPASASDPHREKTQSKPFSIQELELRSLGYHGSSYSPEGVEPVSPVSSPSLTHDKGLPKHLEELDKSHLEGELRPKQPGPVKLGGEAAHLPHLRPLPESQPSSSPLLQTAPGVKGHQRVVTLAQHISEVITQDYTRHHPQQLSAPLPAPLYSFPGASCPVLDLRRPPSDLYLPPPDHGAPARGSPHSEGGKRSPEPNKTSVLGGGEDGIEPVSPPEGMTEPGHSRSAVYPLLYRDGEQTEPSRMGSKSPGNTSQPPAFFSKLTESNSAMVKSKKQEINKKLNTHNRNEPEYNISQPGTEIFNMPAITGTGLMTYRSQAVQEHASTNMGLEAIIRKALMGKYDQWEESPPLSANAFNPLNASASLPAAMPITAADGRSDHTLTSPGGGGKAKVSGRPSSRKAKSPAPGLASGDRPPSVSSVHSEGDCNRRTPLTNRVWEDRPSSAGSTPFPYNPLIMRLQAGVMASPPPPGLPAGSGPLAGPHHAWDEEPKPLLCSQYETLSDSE

As a reminder, the IC50 is the midpoint of a concentration-inhibition curve. One may read the half-life as the time in which the quantity being followed falls by half. Regarding `CCCCNc1nc(Cl)nc2c1ncn2Cc1ccc(C(=O)Nc2ccccc2N)cc1`, the IC50 was 34200 nM in [1]; 1240 nM in series [2]; 27.5 nM against Histone deacetylase; 380 nM with MDA-MB-231 [5]; 1290 nM with HepG2; 1520 nM with SGC-7901. In addition, in the series on K562, the IC50 is 120 nM. The Ratio IC50 in series [3] stood at 19; in series [4], 4; in the series with MDA-MB-231 [6], 4. Further, the result in the series on HCT-116 [7] and in the series on HCT-116 [8] was Active. In addition, the Activity in the series on HCT-116 [9] worked out at 8.94%; with HCT-116 [10] it was 59.1%; in the series with HCT-116 [11], 20.23%; in the series with HCT-116 [12], 15.43%; in the series on HCT-116 [13], 67.96%; in the series on HCT-116 [14], 11.15%. In addition, the Activity entry with HCT-116 [15] was “Dde”; in the series on HCT-116 [16] it was “Dde”; in the series with HCT-116 [17], “Tde”. The compound further gave a half-life at 13.8 µM in series [18] of 3.73 h. The values for the CLint in [19] and in series [20] were 3.1 µL/min/mg and 2.5 µL/min/mg, respectively.
